According to patent US8178578B2, “Chemical compounds” (The University of Manchester, priority 2006, dated 2012):

What was measured:
[1] = Maximum tolerated dose by dose escalation in mice; conditions: mouse, in vivo, ip, single intraperitoneal dose, read-out: dose believed to be the maximum tolerated dose
tubulin = assay: Test (b): inhibition of tubulin assembly; format: biochemical; conditions: absorbance at 350 nm over 20 minutes, 37° C.; read-out: IC50 - Assay (b), concentration for 50% inhibition of tubulin assembly
Description: The compounds of the present invention were also tested in assay (b) for their ability to inhibit tubulin assembly generally as described in McGown and Fox, “Structural and biochemical comparison of the anti-mitotic agents colchicine, combretastatin A-4 and amphethinile” Anti-Cancer Drug Design, 3, 249, 1989.
Samples were prepared in quartz cuvettes at 0° C. and contained 2-morpholinoethanesulfonic acid (MES) buffer (740 μl, 0.1 M MES, 1 mM ethylene glycol tetraacetic acid (EGTA), 0.5 mM MgCl2, pH 6.6), a compound of the present invention (10 μl, 1 mM in DMSO), tubulin (150 μl, 1/4 dilution of neat tubulin in MES buffer) and GTP (100 μl, 10 mM). The overall concentration of the compound in solution was therefore 10 μM. The cell was mixed well, dried and immediately placed in a Varian Cary 1 UV/Visible spectrophotometer, preheated to 37° C., along with a control sample containing MES buffer (740 μl), guanosine triphosphate (GTP) (100 μl, 10 mM), tubulin (150 μl, concentration as before) and DMSO (10 μl). The absorbance at 350 nm was recorded over a period of 20 minutes. The results were compared with the untreated control experiment to assess the relative degree of change in optical density. If assembly was less than 50% of that of the control, the experiment was repeated using decreasing concentrations (from 1 mM) of the compound in order to determine the activity.

[2] = test system: DLD-1 tumours (colon carcinomas); assay: Test (c): in vivo functional vasculature study with Hoechst 33342; set-up: species or system mice; conditions: single intraperitoneal dose at believed maximum tolerated dose
Description: The compounds of the present invention were also tested in in vivo functional vasculature studies using the fluorescent DNA-binding compound Hoechst 33342 (H33342)
Twenty-eight mice were used for test (c). The tumours used were colon carcinomas (DLD-1). Once the tumours reached a suitable size, mice were randomised and assigned into 10 groups with one control group and 3 groups for each compound to be tested (referred to as a “drug group”). Mice in a drug group were treated intraperitoneally with a single dose of a compound of the present invention at a dose believed to be the maximum tolerated dose for each compound being tested (the maximum tolerated dose being measured by dosing mice with increasing amounts of compound (normally doubling the previous dose) until it is either fatal or the animal suffers substantial weight loss or has become distressed). The dose for the compound of Example 1 was 60 mg/kg, for the compound of Example 2 was 120 mg/kg and for the compound of Example 3 was 270 mg/kg. The control group was untreated. H33342 was then injected intravenously at 40 mg/kg to the treated mice 4, 8 and 24 hours after administration of a compound of the present invention and after 24 hours to the untreated control mice. After one minute, each mouse was killed by cervical dislocation and the tumours were removed. Following this procedure the H33342 is confined to the nuclei of cells adjacent to the blood vessels. The tumours were wrapped in aluminium foil and immediately snap-frozen in liquid nitrogen and then stored at −80° C. until required for sectioning. For assessment of tumour vasculature, 10 μm-thick sections were cut using a cryostat (Leica, CM 1100, Scientific Laboratory Supplies, UK) with intervals between sections of 200 μm. The sections were placed on glass slides and allowed to air dry before viewing under a light microscope using UV illumination. Functional vascular volume was quantified using a point scoring system as described previously (Cowen S. E., Bibby M. C., Double J. A., Characterisation of the vasculature within a murine adenocarcinoma growing in different sites to evaluate the potential of vascular therapies, Acta Oncologica, 1995, 34, 357-60). Using a graticule with 22×16 grids, points crossing areas of fluorescence were counted as positive points. The total number of positive points was used to calculate the percentage of functional vasculature. Five sections per tumour and 5 fields per section were examined for tumours.
The results of test (c) are shown in FIG. 1, which is a graph showing relative percentage of control functional vasculature in the DLD-1 tumours after treatment with the compounds of Examples 1, 2 and 3 at doses of 60, 120 and 270 mg/kg respectively. Each point plotted in the graph of FIG. 1 represents the mean percentage of control functional vasculature for each time-point.

[3] = test system: K562 human chronic myelogenous leukaemia cell line; assay: Test (a): growth inhibitory activity, MTT assay; format: cell-based; conditions: 120 h, K562 cells, 5 days incubation, read-out: IC50 - Assay (a), concentration to inhibit 50% cell proliferation
Description: The compounds of the present invention were tested in test (a) for growth inhibitory activity (IC50) against the K562 human chronic myelogenous leukaemia cell line using a MTT assay generally as described in Tada, H., Shiho, O., Kuroshima, K., Koyama, M., Tsukamoto, K., J. Immunol. Methods 1986, 93, 157 and Edmondson, J. M., Armstrong, L. S., Martinez, A. O., J. Tissue Culture Methods 1988, 11, 15. Cells were cultured in Roswell Park Memorial Institute (RPMI) medium, free of antibiotics and containing L-glutamine ([…]), supplemented with 10% foetal calf serum. A single suspension of the K562 cell line was tested from an exponentially growing culture. The cells were counted using a haemocytometer, and diluted to 5×10^3/ml.
A compound of the present invention was dissolved in dimethylsulfoxide (DMSO) at a concentration of 50 μM and 4 μl of the DMSO solution was added to the cell suspension (4 ml). 1 ml of this solution was added to a further 1 ml of cell solution in a neighbouring tube, giving a compound half that of the initial dilution. The dilutions were continued in the same manner affording seven samples at different concentrations. One cell solution was left compound free as a control. Treated cells (200 μl) were pipetted in triplicate into a 96-well plate and incubated at 37° C. in a 5% CO2 in air atmosphere for 5 days. After this time, the plate was removed from the incubator and a solution of (3-(4,5-dimethylthiazol-2-yl)-2,5-diphenyltetrazolium bromide (MTT) (50 μl, 3 mg/ml in phosphate buffered saline (PBS)) was added to each well. After a further 3 hour incubation period under the same conditions, the medium was carefully removed from each well by suction and the resulting formazan precipitate was dissolved in DMSO (200 μl). The optical density of each well was then read (540 nm) using a Titretek Multiscan MCC/340 platereader. After processing and analysis through the application of an ‘in-house’ software package, the results obtained enabled the calculation of the drug dose required to inhibit cellular growth by 50% (GI50 or IC50 value).

Row | SMILES | MTD [1] | IC50 (tubulin) | functional vasculature in DLD-1 tumours compared to control tumours ([2]; 8 hours post-treatment) | functional vasculature in DLD-1 tumours compared to control tumours ([2]; 24 hours post-treatment) | IC50 [3] | functional vasculature in DLD-1 tumours compared to control tumours ([2]; 4 hours post-treatment) | melting point
1 | COc1ccc2c(c1)COCc1cc(OC)c(OC)c(OC)c1-2 [Example 1, 1,2,3,9-Tetramethoxy-5,7-dihydrodibenzo[c,e]oxepine] | 60 mg/kg | 5700 nM | significant decrease | significant decrease | 110 nM |  | 
2 | COc1cc2c(c(OC)c1OC)-c1cc3c(cc1COC2)OCO3 [Example 2, 5,7-Dihydro-1,2,3-trimethoxybenzo[d][1,3]dioxolo[4,5-h][2]benzoxepin] | 120 mg/kg |  | no difference | significant functional vasculature decrease |  | no difference | 
3 | COc1ccc2c(c1O)COCc1cc(OC)c(OC)c(OC)c1-2 [Example 3, 3,9,10,11-Tetramethoxy-5,7-dihydrodibenzo[c,e]oxepin-4-ol] | 270 mg/kg | 800 nM | restored back to above control level | significantly decreased | 33.9 nM | dramatically decreased | 
4 | COc1ccc2c(c1OP(=O)([O][Na+])[O][Na+])COCc1cc(OC)c(OC)c(OC)c1-2 [Example 4, 3,9,10,11-Tetramethoxy-5,7-dihydrodibenzo[c,e]oxepin-4-yl disodium phosphate] |  | 700 nM |  |  | 0.23 nM |  | 
5 | COc1cc2c(c(OC)c1OC)-c1ccc([N+](=O)[O-])cc1COC2 [Example 5, 1,2,3-Trimethoxy-9-nitro-5,7-dihydrodibenzo[c,e]oxepine] |  |  |  |  |  |  | 161 °C
6 | COc1cc2c(c(OC)c1OC)-c1ccc(N)cc1COC2 [Example 6, 9,10,11-Trimethoxy-5,7-dihydrodibenzo[c,e]oxepin-3-amine] |  |  |  |  |  |  | 145 °C
7 | COc1ccc2c(c1OS(=O)(=O)C(F)(F)F)COCc1cc(OC)c(OC)c(OC)c1-2 [Example 7, 3,9,10,11-Tetramethoxy-5,7-dihydrodibenzo[c,e]oxepin-4-yl trifluoromethanesulfonate] |  |  |  |  |  |  | 164 °C
8 | COc1ccc2c(c1N)COCc1cc(OC)c(OC)c(OC)c1-2 [Example 9, 3,9,10,11-Tetramethoxy-5,7-dihydrodibenzo[c,e]oxepin-4-amine] |  | 900 nM |  |  | 2 nM |  | 
